Measurements taken from PMC4854315, “Discovery of a novel allosteric inhibitor-binding site in ERK5: comparison with the canonical kinase hinge ATP-binding site” (Acta Crystallographica. Section D, Structural Biology, 2016).

Legend:
Experiment in all cases: Z'-LYTE kinase panel
Type in all cases: biochemical
FGFR1 = molecular target: T1, FGFR1 (Homo sapiens, UniProt P11362)
T1 construct: purchased ThermoFisher (SelectScreen, Z'-LYTE)
Procedure, shortened: (§1)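 Activity is reported as percent inhibition at one concentration, 10 µM, determined by the standard Z′-LYTE kinase assay across 225 panel kinases.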

MELK = molecular target: T2, MELK (Homo sapiens, UniProt Q14680)
T2 construct: purchased ThermoFisher (SelectScreen, Z'-LYTE)
Procedure, shortened: as §1

CSNK2A1 (CK2 alpha 1) = molecular target: T3, CSNK2A1 (CK2 alpha 1) (Homo sapiens, UniProt P68400)
T3 construct: purchased ThermoFisher (SelectScreen, Z'-LYTE)
Procedure, shortened: as §1

EPHB3 = molecular target: T4, EPHB3 (Homo sapiens, UniProt P54753)
T4 construct: purchased ThermoFisher (SelectScreen, Z'-LYTE)
T4 sequence (P54753 34-998): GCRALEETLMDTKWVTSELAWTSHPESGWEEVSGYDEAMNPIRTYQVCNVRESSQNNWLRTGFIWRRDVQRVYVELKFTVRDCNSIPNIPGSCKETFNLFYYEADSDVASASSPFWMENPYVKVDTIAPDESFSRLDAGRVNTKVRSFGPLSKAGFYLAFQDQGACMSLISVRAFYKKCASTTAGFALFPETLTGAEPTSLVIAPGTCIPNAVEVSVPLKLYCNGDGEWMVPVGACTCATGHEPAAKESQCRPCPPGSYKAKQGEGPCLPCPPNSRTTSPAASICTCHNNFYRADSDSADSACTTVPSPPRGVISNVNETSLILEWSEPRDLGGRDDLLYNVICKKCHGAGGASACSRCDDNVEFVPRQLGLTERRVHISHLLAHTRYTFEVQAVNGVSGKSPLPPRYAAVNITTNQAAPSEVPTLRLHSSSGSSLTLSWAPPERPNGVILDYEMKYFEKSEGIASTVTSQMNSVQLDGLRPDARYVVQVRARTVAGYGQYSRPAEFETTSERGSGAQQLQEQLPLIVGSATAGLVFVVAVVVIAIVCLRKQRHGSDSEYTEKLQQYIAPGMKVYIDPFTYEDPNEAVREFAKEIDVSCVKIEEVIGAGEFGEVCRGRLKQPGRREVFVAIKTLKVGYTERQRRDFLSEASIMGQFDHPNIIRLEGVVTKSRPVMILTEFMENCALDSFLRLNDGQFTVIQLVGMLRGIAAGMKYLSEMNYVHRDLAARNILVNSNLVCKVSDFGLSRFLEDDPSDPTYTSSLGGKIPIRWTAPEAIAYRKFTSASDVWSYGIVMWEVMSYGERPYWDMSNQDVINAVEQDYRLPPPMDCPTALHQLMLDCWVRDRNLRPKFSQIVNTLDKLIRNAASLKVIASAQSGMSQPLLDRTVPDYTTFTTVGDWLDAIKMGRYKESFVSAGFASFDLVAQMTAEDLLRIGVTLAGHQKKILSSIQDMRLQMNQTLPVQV
Procedure, shortened: as §1

AXL = molecular target: T5, AXL (Homo sapiens, UniProt P30530)
T5 construct: purchased ThermoFisher (SelectScreen, Z'-LYTE)
T5 sequence (P30530 26-894): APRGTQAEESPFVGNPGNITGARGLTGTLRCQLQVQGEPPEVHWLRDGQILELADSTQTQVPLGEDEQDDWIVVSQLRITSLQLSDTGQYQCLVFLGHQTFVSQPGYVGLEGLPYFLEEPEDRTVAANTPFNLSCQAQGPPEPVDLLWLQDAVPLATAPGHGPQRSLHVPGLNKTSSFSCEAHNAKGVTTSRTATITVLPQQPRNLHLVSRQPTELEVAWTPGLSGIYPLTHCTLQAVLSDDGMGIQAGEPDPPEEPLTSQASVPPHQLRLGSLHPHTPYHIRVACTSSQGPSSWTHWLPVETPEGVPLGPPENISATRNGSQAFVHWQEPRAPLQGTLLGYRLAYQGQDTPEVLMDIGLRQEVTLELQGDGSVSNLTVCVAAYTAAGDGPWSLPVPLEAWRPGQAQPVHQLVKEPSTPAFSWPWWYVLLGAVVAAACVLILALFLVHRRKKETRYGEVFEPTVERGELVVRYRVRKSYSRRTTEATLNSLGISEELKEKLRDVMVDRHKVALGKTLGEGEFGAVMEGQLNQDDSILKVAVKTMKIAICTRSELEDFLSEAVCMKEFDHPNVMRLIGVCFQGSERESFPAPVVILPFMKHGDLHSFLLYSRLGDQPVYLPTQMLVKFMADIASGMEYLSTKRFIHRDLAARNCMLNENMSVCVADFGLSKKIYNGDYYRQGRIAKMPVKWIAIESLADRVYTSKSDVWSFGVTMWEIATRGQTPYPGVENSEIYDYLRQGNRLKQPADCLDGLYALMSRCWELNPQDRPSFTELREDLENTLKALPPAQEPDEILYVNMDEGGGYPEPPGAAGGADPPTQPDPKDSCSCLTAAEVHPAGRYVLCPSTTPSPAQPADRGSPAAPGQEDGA
Procedure, shortened: as §1

DAPK3 (ZIPK) = molecular target: T6, DAPK3 (ZIPK) (Homo sapiens, UniProt O43293)
T6 construct: purchased ThermoFisher (SelectScreen, Z'-LYTE)
Procedure, shortened: as §1

CSNK1G3 (CK1 gamma 3) = molecular target: T7, CSNK1G3 (CK1 gamma 3) (Homo sapiens, UniProt Q9Y6M4)
T7 construct: purchased ThermoFisher (SelectScreen, Z'-LYTE)
Procedure, shortened: as §1

FGFR2 = molecular target: T8, FGFR2 (Homo sapiens, UniProt P21802)
T8 construct: purchased ThermoFisher (SelectScreen, Z'-LYTE)
Procedure, shortened: as §1

MAP2K2 (MEK2) = molecular target: T9, MAP2K2 (MEK2) (Homo sapiens, UniProt P36507); conditions: 10 µM compound; ATP 100
T9 construct: purchased ThermoFisher (SelectScreen, Z'-LYTE)
Procedure, shortened: as §1

T8 sequence (P21802 22-821): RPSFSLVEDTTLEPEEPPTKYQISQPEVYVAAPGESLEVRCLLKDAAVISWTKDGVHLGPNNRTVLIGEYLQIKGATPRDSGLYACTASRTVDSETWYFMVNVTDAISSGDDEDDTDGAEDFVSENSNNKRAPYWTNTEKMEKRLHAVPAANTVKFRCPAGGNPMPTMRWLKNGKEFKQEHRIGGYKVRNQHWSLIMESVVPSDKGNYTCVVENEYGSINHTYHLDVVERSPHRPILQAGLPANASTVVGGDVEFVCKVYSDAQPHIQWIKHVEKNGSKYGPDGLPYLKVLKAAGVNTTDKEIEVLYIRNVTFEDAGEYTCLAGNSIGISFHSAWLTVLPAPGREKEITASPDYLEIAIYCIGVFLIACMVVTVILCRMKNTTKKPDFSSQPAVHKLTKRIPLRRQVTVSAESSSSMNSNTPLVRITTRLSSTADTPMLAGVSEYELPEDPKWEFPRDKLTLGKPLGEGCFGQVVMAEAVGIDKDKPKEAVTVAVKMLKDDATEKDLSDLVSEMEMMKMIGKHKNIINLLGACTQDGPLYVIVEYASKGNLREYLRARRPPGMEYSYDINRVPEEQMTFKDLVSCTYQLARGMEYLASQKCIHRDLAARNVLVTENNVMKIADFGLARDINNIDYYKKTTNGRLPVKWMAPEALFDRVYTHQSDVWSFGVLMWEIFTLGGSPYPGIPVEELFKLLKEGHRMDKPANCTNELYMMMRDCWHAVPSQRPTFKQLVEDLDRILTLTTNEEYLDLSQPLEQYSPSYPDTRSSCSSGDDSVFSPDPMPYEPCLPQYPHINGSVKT
T1 sequence (P11362 22-822): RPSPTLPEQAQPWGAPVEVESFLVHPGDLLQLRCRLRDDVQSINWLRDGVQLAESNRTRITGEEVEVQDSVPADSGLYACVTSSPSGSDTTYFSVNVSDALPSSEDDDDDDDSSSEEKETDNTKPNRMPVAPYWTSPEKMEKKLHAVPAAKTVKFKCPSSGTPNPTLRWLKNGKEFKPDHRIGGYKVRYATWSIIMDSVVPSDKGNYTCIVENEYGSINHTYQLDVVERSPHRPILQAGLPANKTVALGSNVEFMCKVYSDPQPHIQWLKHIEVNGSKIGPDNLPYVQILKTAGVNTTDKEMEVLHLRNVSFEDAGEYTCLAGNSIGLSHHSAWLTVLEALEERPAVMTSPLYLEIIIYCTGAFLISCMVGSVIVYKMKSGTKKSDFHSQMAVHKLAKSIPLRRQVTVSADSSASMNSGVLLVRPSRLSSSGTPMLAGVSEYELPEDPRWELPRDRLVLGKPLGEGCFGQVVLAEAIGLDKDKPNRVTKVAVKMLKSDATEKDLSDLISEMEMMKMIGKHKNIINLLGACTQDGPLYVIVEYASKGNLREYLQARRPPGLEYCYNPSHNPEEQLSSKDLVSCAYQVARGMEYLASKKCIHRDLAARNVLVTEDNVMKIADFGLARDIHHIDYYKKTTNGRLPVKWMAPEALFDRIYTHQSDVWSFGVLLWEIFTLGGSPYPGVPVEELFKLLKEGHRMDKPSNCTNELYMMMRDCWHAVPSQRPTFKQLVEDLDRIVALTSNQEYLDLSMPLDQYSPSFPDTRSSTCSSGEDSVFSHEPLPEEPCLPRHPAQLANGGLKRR
T6 sequence (O43293 whole entry): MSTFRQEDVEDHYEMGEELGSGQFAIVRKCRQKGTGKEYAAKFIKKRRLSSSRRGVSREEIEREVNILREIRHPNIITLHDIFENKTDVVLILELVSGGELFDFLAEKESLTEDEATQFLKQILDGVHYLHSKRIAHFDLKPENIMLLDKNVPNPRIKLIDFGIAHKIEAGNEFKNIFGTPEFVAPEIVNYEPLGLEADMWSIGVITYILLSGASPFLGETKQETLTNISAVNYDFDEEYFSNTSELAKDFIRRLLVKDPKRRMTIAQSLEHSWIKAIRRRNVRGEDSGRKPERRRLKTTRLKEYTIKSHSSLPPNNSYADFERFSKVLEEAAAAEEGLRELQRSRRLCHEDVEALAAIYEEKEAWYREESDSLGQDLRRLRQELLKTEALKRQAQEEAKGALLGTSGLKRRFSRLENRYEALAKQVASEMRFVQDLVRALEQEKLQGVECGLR
T3 sequence (P68400 whole entry): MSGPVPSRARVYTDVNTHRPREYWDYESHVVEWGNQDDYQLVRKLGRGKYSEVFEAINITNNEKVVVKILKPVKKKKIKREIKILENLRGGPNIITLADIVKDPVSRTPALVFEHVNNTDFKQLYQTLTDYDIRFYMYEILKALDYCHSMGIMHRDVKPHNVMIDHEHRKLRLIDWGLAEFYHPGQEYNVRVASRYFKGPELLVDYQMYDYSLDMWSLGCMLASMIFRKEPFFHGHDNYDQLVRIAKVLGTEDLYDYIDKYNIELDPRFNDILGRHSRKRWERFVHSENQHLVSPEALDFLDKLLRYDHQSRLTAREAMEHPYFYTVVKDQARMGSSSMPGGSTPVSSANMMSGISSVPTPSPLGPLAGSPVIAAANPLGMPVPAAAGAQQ
T2 sequence (Q14680 whole entry): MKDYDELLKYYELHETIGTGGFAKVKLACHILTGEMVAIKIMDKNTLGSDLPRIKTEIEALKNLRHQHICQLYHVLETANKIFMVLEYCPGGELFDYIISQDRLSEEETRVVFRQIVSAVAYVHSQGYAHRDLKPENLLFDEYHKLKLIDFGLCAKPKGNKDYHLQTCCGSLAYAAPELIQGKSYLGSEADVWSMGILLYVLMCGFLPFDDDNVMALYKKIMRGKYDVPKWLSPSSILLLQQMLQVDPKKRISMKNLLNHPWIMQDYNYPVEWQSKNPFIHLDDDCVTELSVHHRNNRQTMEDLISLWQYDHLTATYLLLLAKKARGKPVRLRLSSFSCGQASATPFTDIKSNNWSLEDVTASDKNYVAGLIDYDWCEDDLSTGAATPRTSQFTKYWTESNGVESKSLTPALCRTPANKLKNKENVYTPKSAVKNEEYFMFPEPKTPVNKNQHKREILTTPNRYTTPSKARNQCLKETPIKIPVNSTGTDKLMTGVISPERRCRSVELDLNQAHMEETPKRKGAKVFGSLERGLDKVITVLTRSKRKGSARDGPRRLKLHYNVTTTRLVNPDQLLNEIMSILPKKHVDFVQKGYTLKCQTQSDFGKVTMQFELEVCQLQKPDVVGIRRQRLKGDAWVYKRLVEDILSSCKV
T7 sequence (Q9Y6M4 whole entry): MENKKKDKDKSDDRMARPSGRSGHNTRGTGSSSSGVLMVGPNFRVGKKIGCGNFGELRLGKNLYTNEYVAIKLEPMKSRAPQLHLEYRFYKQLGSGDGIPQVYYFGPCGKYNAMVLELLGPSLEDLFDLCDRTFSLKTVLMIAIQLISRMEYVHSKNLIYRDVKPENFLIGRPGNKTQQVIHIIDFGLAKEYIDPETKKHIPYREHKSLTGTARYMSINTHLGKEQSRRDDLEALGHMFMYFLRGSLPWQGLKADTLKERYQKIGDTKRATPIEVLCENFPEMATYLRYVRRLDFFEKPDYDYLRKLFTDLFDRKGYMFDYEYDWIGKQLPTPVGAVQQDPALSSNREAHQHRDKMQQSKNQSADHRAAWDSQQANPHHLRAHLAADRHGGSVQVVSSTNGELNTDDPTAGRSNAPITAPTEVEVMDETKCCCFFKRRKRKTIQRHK

Molecule | inhibition at 10 µM (FGFR1) | inhibition at 10 µM (MELK) | inhibition at 10 µM (CSNK2A1 (CK2 alpha 1)) | inhibition at 10 µM (EPHB3) | inhibition at 10 µM (AXL) | inhibition at 10 µM (DAPK3 (ZIPK)) | inhibition at 10 µM (CSNK1G3 (CK1 gamma 3)) | inhibition at 10 µM (FGFR2) | inhibition at 10 µM (MAP2K2 (MEK2)) | FGFR1 % Inhibition (FGFR1; 10 µM compound, ATP Km app) | MELK % Inhibition (MELK; 10 µM compound, ATP Km app) | CSNK2A1 (CK2 alpha 1) % Inhibition (CSNK2A1 (CK2 alpha 1); 10 µM compound, ATP Km app) | EPHB3 % Inhibition (EPHB3; 10 µM compound, ATP Km app) | AXL % Inhibition (AXL; 10 µM compound, ATP Km app) | DAPK3 (ZIPK) % Inhibition (DAPK3 (ZIPK); 10 µM compound, ATP Km app) | CSNK1G3 (CK1 gamma 3) % Inhibition (CSNK1G3 (CK1 gamma 3); 10 µM compound, ATP Km app) | FGFR2 % Inhibition (FGFR2; 10 µM compound, ATP Km app) | MAP2K2 (MEK2) % Inhibition (MAP2K2 (MEK2))
Cc1ncc(-c2nc(Nc3ccc(C(=O)NCCN4CCCCC4)cc3)ncc2F)n1C(C)C [Compound 3] | 73% | 100% | 40% | 51% | 95% | 78% | 89% | 88% | 94% |  |  |  |  |  |  |  |  | 
Cc1cc(Nc2nc(N)nn2C(=O)NC(C)C)ccc1Cl [Compound 5] | 17% | 4.73% | 8% | 0.2% | 18% | -7.41% | 17% | 53% | 21% |  |  |  |  |  |  |  |  | 
XMD8-92 [Compound 2, reference compound] |  |  |  |  |  |  |  |  |  | 8% | 80% | 8% | 22% | 3% | -0.894% | 31% | 33% | 24%
